The values below come from ChEMBL document CHEMBL1201862, “PubChem BioAssay data set” (2004).

Common to all, as to experiment: growth of human tumour cells (NCI), 48 h
The subject of experiment [1] is A498.
In experiment [2] the test system is COLO 205.
For experiment [3], the system named is HOP-62.
For experiment [4], the system named is HOP-92.
For experiment [5], the system named is HT-29.
In experiment [6] the test system is M14.
In experiment [7] the test system is MDA-N.
In experiment [8] the test system is MOLT-4.
Experiment [9] concerns Malme-3M.
The test system of experiment [10] is NCI-H460.
In experiment [11] the test system is OVCAR-5.
Experiment [12] relates to PC-3.
The subject of experiment [13] is RPMI-8226.
Experiment [14] relates to SF-539.
For experiment [15], the system named is SK-MEL-28.
Experiment [16] concerns SN12C.
Experiment [17] has as its system SNB-75.
Experiment [18] relates to UACC-257.
Experiment [19] concerns UACC-62.
Experiment [20] relates to CCRF-CEM.

Structures are written as SMILES.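 A five-concentration, 48-hour dose response in 96-well plates underlies each endpoint, interpolated linearly between surrounding concentrations. At the GI50, growth is halved.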 Activity calls are given as the source filed them. Cut-off read from the data, not from the text of the source: active = GI50 up to about 1.1 µM and inactive = higher. Bounds are passed on as bounds.

For `ON(CCc1ccccn1)Cc1ccccc1`, the GI50 in experiment [1], in experiment [2], in [3], in experiment [4], in experiment [5] and in experiment [6] was > 100 µM (inactive) throughout. For the same compound, the GI50 in experiment [7], in experiment [8], in [9], in [10], in experiment [11] and in [12] was > 100 µM (inactive) throughout. The GI50 in [13], in experiment [14], in experiment [15], in experiment [16], in experiment [17] and in [18] was > 100 µM (inactive) each time. The GI50 in experiment [19] was > 100 µM (inactive).

Regarding `O=C(O[C@H](/C=C/c1ccccc1)P1(=O)N(Cc2ccccc2)[C@H]2CCCC[C@@H]2N1Cc1ccccc1)c1ccccc1`, the GI50 in [1] was 7.48 µM (inactive); in experiment [20], 3.48 µM (inactive); in experiment [2], 1.68 µM (inactive); in experiment [3], 5.51 µM (inactive); in [4] it was 1.99 µM (inactive); in experiment [5], 3.8 µM (inactive). In addition, the GI50 in [6] is 4.5 µM (inactive); in experiment [7], 3.52 µM (inactive); in experiment [9], 2.89 µM (inactive); in experiment [10], 3.72 µM (inactive); in experiment [11], 4.94 µM (inactive); in [12], 3.58 µM (inactive). Moreover, the GI50 is 3.42 µM (inactive) in experiment [13]; 3.72 µM (inactive) in experiment [14]; 8.83 µM (inactive) in [15]; 3.15 µM (inactive) in experiment [16]; 9.84 µM (inactive) in experiment [18]; 5.33 µM (inactive) in [19].

Take `C=C1C2CC[C@@](C)(O)C2[C@H]2OC(=O)C(=C)[C@@H]2C[C@H]1O` (some centres undefined): the GI50 in experiment [1] is 41 µM (inactive); in experiment [20] it was 2.56 µM (inactive); in experiment [2], 15 µM (inactive); in experiment [3] it was 30.7 µM (inactive); in experiment [4] it was 27.5 µM (inactive); in experiment [5], 16.1 µM (inactive). Also, the GI50 in experiment [6] was 13.8 µM (inactive); in experiment [7], 24.5 µM (inactive); in experiment [8], 14.7 µM (inactive); in experiment [9], 15.2 µM (inactive); in [11] it was 29 µM (inactive); in experiment [12], 34.4 µM (inactive). In addition, the GI50 was 13.1 µM (inactive) in experiment [13]; 14.2 µM (inactive) in [14]; 26 µM (inactive) in experiment [15]; 18.5 µM (inactive) in [16]; 43.4 µM (inactive) in experiment [17]; 16.3 µM (inactive) in [18]. Besides, the GI50 in experiment [19] was 16 µM (inactive).

With `C1CSCCSCCCSCCSCCCSCCSCCCSCCSC1`, the GI50 in experiment [1], in [20], in experiment [2], in experiment [3], in experiment [4] and in experiment [5] was > 100 µM (inactive) each time. Further, the GI50 in experiment [6], in [7], in [8], in experiment [9], in [10] and in [11] was > 100 µM (inactive) throughout. Besides, the GI50 in experiment [12] is 69.3 µM (inactive); in [13], 86.1 µM (inactive); in experiment [14], > 100 µM (inactive); in [15], > 100 µM (inactive); in experiment [16] it was > 100 µM (inactive); in experiment [18], > 100 µM (inactive).

Turning to `COc1ccc(NC(=O)C(C#N)=C(SC)SC)cc1`, the GI50 in experiment [1] was > 100 µM (inactive); in experiment [20] it was > 100 µM (inactive); in experiment [2], > 100 µM (inactive); in experiment [3] it was > 100 µM (inactive); in experiment [4] it was 15.8 µM (inactive); in [5], > 100 µM (inactive). Moreover, the GI50 in experiment [6], in [7], in experiment [8], in experiment [9], in [10] and in [11] was > 100 µM (inactive) in each case. Besides, the GI50 in [12], in experiment [13], in [14], in experiment [15], in experiment [16] and in [18] was > 100 µM (inactive) each time. For the same compound, the GI50 in experiment [19] was > 100 µM (inactive).

As for `CC1=C(C(=O)NC2CCCCC2)CC(C(=O)NC2CCCCC2)=C(C)N1`, the GI50 in [1] is 65.9 µM (inactive); in experiment [20], > 100 µM (inactive); in experiment [2] it was > 100 µM (inactive); in [3] it was > 100 µM (inactive); in experiment [4], 33 µM (inactive); in experiment [6] it was > 100 µM (inactive). For the same compound, the GI50 in [7] is > 100 µM (inactive); in experiment [8] it was > 100 µM (inactive); in [9], > 100 µM (inactive); in experiment [10] it was > 100 µM (inactive); in experiment [11] it was > 100 µM (inactive); in experiment [12], 77.4 µM (inactive). Moreover, the GI50 is > 100 µM (inactive) in [13]; > 100 µM (inactive) in experiment [14]; > 100 µM (inactive) in [15]; > 100 µM (inactive) in experiment [16]; 13.7 µM (inactive) in [17]; > 100 µM (inactive) in [18]. The GI50 in [19] is > 100 µM (inactive).

With `O=C(c1ccccc1)c1c(-c2ccccc2)[nH]n(-c2ccc([N+](=O)[O-])cc2)c(=O)c1=O`, the GI50 is > 100 µM (inactive) in [1]; 47 µM (inactive) in experiment [20]; > 100 µM (inactive) in experiment [2]; > 100 µM (inactive) in experiment [3]; 16.8 µM (inactive) in experiment [4]; 36.6 µM (inactive) in experiment [5]. Further, the GI50 in experiment [6] is > 100 µM (inactive); in [7] it was > 100 µM (inactive); in [8] it was 37.2 µM (inactive); in experiment [9], > 100 µM (inactive); in experiment [10] it was 37.2 µM (inactive); in experiment [11] it was > 100 µM (inactive). Besides, the GI50 was 42.9 µM (inactive) in experiment [12]; 43.9 µM (inactive) in experiment [13]; 28.8 µM (inactive) in [14]; 21 µM (inactive) in [15]; 57.3 µM (inactive) in experiment [16]; 41.5 µM (inactive) in experiment [18]. Moreover, the GI50 in experiment [19] is < 0.01 µM (active).

Regarding `O=c1c2ccccc2n2n1Cc1ccccc1C2`, the GI50 in experiment [1], in experiment [20], in experiment [2], in [3], in [4] and in [5] was > 100 µM (inactive) throughout. Besides, the GI50 in experiment [7], in experiment [8], in [9], in experiment [10], in experiment [12] and in experiment [13] was > 100 µM (inactive) each time. The GI50 in experiment [14] is > 100 µM (inactive); in [15], > 100 µM (inactive); in experiment [16] it was > 100 µM (inactive); in experiment [17] it was 58.3 µM (inactive); in experiment [18], > 100 µM (inactive); in experiment [19], > 100 µM (inactive).
